# Results reported in patent US20240382508A1, “REGENERATIVE AGENT FOR BONE TISSUE AND LUNG TISSUE, AND PHARMACEUTICAL COMPOSITION FOR REGENERATING BONE TISSUE AND LUNG TISSUE” (NIIGATA UNIVERSITY, priority 2021, published 2024).
# Entries after “also recorded” stand apart in the source; their conditions may differ.
# What was measured:
# [1] = system: iCell mesenchymal stem cells; assay: bone nodule measurement in mesenchymal stem cells induced from human iPS cells; format: cell-based; settings: 10 μg/mL for each; 15 days; bone differentiation medium
# Description: iCell (registered trademark) mesenchymal stem cells (iCell (registered trademark) MSCs) (#01279, manufactured by Fujifilm Corporation) (1×10^4 cells/mL) obtained by inducing human mesenchymal stem cells from iPS cells, were cultured in α-MEM and a bone differentiation medium (containing 50 μg/mL ascorbic acid and 10 mM β-glycerol 2-phosphate). Ethanol (final concentration 0.1% by mass), or erythromycin, clarithromycin, or azithromycin (10 μg/mL for each) was added to the medium. The medium was exchanged every 3 days, and after 15 days, the cells were stained with Alizarin red S, followed by performing of bone nodule measurement. The results are shown in FIG. 18 (stained images) and FIG. 19 (graph showing the proportion of bone nodules). In FIG. 18 and FIG. 19, the ethanol (final concentration 0.1% by mass)-added group is a control. In FIG. 19, the symbol * indicates p≤0.05, the symbol ** indicates p≤0.01, the symbol *** indicates p≤0.001, and the symbol **** indicates p≤0.0001.
# [2] = system: bone defects in the jawbones; assay: jawbone defect regeneration in cynomolgus monkeys (microCT); format: in vivo; settings: 200 μg at bone defect site, one month
# Description: Bone defects with a diameter of 2 cm and a depth of 2 cm were artificially produced in the jawbones of young (2 years old) and aged (10 years old) cynomolgus monkeys by using a round steel bar. Next, 200 μg of each of erythromycin, clarithromycin, and azithromycin were added to the bone defect sites. As controls, a non-administered group and a group administered with 200 μg of REGROTH (registered trademark), which has been approved as a bone regenerative agent, were also prepared. The amount of bone regeneration after one month from the administration of each drug was checked by using microCT. In FIG. 10, the symbol * indicates p<0.01.
# [3] = system: experimental periodontitis model mice; assay: bone regeneration in experimental periodontitis model mice (teeth ligated with silk threads); format: in vivo, mouse; settings: 22-month-old aging mice; 20 mg/kg intraperitoneally once; 5 days regeneration period
# Text: Experimental periodontitis model mice in which teeth are ligated with silk threads are useful models for inflammatory bone destruction research because inflammations and bone resorption occur in about 10 days after the ligation. The above-described experimental periodontitis models were produced by using 6-week-old wild-type mice (N=8, male C57BL/6N mice, manufactured by CLEA Japan, Inc.), 22-month-old aging mice (N=4, male C57BL/6N mice, manufactured by CLEA Japan, Inc.), and 6-week-old DEL-1-deficient mice (N=8, male C57BL/6N mice (manufactured by CLEA Japan, Inc.), a method for producing the deficient mice was as described in Non Patent Document 1), the silk threads were removed 10 days after the ligation, a remission phase of inflammation of 5 days passed, and in the wild-type mice, new bone formation was recognized at the site of resorbed bone defect while no repair mechanism of the periodontal tissue by DEL-1 was recognized.
# The experimental periodontitis models described in Example 1 were produced by using 6-week-old wild-type mice (N=8, male C57BL/6N mice, manufactured by CLEA Japan, Inc.), 22-month-old aging mice (N=4, male C57BL/6N mice, manufactured by CLEA Japan, Inc.), and 6-week-old DEL-1-deficient mice (N=8, male C57BL/6N mice (manufactured by CLEA Japan, Inc.), a method for producing the deficient mice was as described in Non Patent Document 1), the silk threads were removed 10 days after the ligation to experimentally induce periodontitis, subsequently a bone regeneration period of 5 days was provided, and then the amount of regeneration of resorbed bone was measured using a stereomicroscope and image measurement software (manufactured by Nikon Corporation). Erythromycin (10 mg/kg) and ethanol (final concentration 0.1% by mass) were intraperitoneally administered once after the removal of the silk threads. In addition, DEL-1 (1 μg) and Fc control (0.84 μg) were directly inoculated into the gingiva after the removal of the silk threads. The results are shown in FIG. 3 (left: wild-type mice, right: DEL-1-deficient mice) and FIG. 4 (aging mice).
# Next, the experimental periodontitis model described in Example 1 was produced by using 22-month-old aging mice (N=4, male C57BL/6N mouse, manufactured by CLEA Japan, Inc.), the silk threads were removed 10 days after the ligation to experimentally induce periodontitis, subsequently a bone regeneration period of 5 days was provided, and the amount of regeneration of resorbed bone was measured using a stereomicroscope and image measurement software (manufactured by Nikon Corporation). Erythromycin (ERM) (20 mg/kg), azithromycin (AZM) (20 mg/kg), clarithromycin (CLM) (20 mg/kg), and ethanol (final concentration 0.1% by mass) as a control were intraperitoneally administered once after the removal of the silk threads. […] In addition, there was no difference in the amount of bone regeneration between the macrolide antimicrobial agent-administered groups.
# [4] = system: osteoblasts; assay: bone nodule measurement in osteoblasts (Alizarin red S); format: cell-based, mouse; settings: osteoblasts derived from wild-type mice; 10 μg/mL each; 15 days
# Description: Next, from the cranial bones of 3-day-old wild-type mice (N=6, male C57BL/6N mice, manufactured by CLEA Japan, Inc.) and 3-day-old DEL-1-deficient mice (N=6, male C57BL/6N mice (manufactured by CLEA Japan, Inc.), a method for producing the deficient mice was as described in Non Patent Document 1), osteoblasts were isolated by allowing 0.1% by mass of type 1 collagenase and 0.2% by mass of dispase to act at 37° C. for 20 minutes, and the cells were cultured in α-MEM and a bone differentiation medium (containing 50 μg/ml ascorbic acid and 10 mM β-glycerol 2-phosphate). Ethanol (final concentration 0.1% by mass) and erythromycin (10 μg/mL) were added into the medium in which the osteoblasts (1×10^4 cells/mL) derived from the wild-type mice or the DEL-1-deficient mice were cultured. The medium was exchanged every 3 days, and after 15 days, the cells were stained with Alizarin red S, followed by performing of bone nodule measurement.
# Next, the proportion (%) of bone nodules with respect to the observation region in the above-described osteoblasts was calculated from microscopic images by using image processing software (NIH Image). In addition, RNA was extracted from each of the osteoblasts by using an RNeasy Kit (manufactured by QIAGEN NV), subsequently cDNA was synthesized by using a cDNA synthesis kit (manufactured by Thermo Fisher Scientific, Inc.), and the relative expression levels of RUNX2 mRNA, Sp7 mRNA, and Bglap mRNA, which are important for bone regeneration, were checked by an RT-PCR method (Quantstudio3, Thermo Fisher Scientific, Inc.). Regarding primers, designed primers manufactured by Thermo Fisher Scientific, Inc. were used. The Assay IDs of the primers used are shown below.
# (Bone regeneration-inducing effect 2 by various macrolide antimicrobial agents) From the cranial bones of 3-day-old wild-type mice (N=6, male C57BL/6N mice, manufactured by CLEA Japan, Inc.), osteoblasts were isolated by allowing 0.1% by mass of type 1 collagenase and 0.2% by mass of dispase to act at 37° C. for 20 minutes, and the cells were cultured in α-MEM and a bone differentiation medium (containing 50 μg/ml ascorbic acid and 10 mM β-glycerol 2-phosphate). Ethanol (final concentration 0.1% by mass), or erythromycin, clarithromycin, or azithromycin (10 μg/mL each) was added into the medium in which the osteoblasts (1×10^4 cells/mL) derived from the wild-type mice were cultured. The medium was exchanged every 3 days, and after 15 days, the cells were stained with Alizarin red S, followed by performing of bone nodule measurement. The results are shown in FIG. 11 In FIG. 11, the symbol * indicates p<0.05, and the symbol ** indicates p<0.01. In addition, the control is an ethanol (final concentration 0.1% by mass)-added group.
# [5] = aged (10 years old) cynomolgus monkeys
# [6] = young (2 years old) cynomolgus monkeys
structure (smiles),measurement,setting,value
CC[C@H]1OC(=O)[C@H](C)[C@@H](O[C@H]2C[C@@](C)(OC)[C@@H](O)[C@H](C)O2)[C@H](C)[C@@H](O[C@@H]2O[C@H](C)C[C@H](N(C)C)[C@H]2O)[C@](C)(O)C[C@@H](C)CN(C)[C@H](C)[C@@H](O)[C@]1(C)O [azithromycin],"formation of bone nodules (FIG. 18, FIG. 19)",[1],the formation of bone nodules was recognized
same,bone regeneration effect (FIG. 10),[2]; [5],a bone regeneration effect was recognized
same,bone regeneration effect (FIG. 10),[2]; [6],a bone regeneration effect was recognized
same,bone regeneration (FIG. 9),[3],bone regeneration was recognized
same,formation of bone nodules (FIG. 11),[4],the formation of bone nodules was recognized; also recorded: particularly favorable
CC[C@H]1OC(=O)[C@H](C)[C@@H](O[C@H]2C[C@@](C)(OC)[C@@H](O)[C@H](C)O2)[C@H](C)[C@@H](O[C@@H]2O[C@H](C)C[C@H](N(C)C)[C@H]2O)[C@](C)(OC)C[C@@H](C)C(=O)[C@H](C)[C@@H](O)[C@]1(C)O [clarithromycin],"formation of bone nodules (FIG. 18, FIG. 19)",[1],the formation of bone nodules was recognized
same,bone regeneration effect (FIG. 10),[2]; [5],a bone regeneration effect was recognized
same,bone regeneration effect (FIG. 10),[2]; [6],a bone regeneration effect was recognized
same,bone regeneration (FIG. 9),[3],bone regeneration was recognized
same,formation of bone nodules (FIG. 11),[4],the formation of bone nodules was recognized
